{"source": "patent US20240391862A1", "about": "“(1,4,5-TRISUBSTITUTED-1H-PYRAZOL-3-YL)OXY-2-ALKOXY ALKYL ACIDS AND THEIR DERIVATIVES, THEIR SALTS AND THEIR USE AS HERBICIDAL AGENTS” (Bayer AKtiengesellschaft, priority 2021, published 2024)", "key": {"[1]": {"test_system": "various unwanted plants", "experiment": "Post-emergence effect against various unwanted plants (PO): comparative test of I-01 with compounds from WO2020/245044 (Tables 41a, 41b) and summary statements", "assay_type": "in vivo", "conditions": "for Post-emergence effect, Effect %, ALOMY / Post-emergence effect, Effect %, AVEFA / Post-emergence effect, Effect %, ECHCG / Post-emergence effect, Effect %, LOLRI / Post-emergence effect, Effect %, SETVI: comparative test", "experimental": "Seeds of monocotyledonous and dicotyledonous weeds and crop plants are placed in sandy loam in plastic or organic planting pots, covered with soil and cultivated in a greenhouse under controlled growth conditions. 2 to 3 weeks after sowing, the trial plants are treated at the one-leaf stage. The compounds of the invention, formulated in the form of wettable powders (WP) or as emulsion concentrates (EC), are then sprayed onto the green parts of the plants as aqueous suspension or emulsion with addition of 0.5% additive at a water application rate of 600 l/ha (converted). After the test plants have been kept in the greenhouse under optimum growth conditions for about 3 weeks, the activity of the preparations is rated visually in comparison to untreated controls. For example, 100% activity=the plants have died, 0% activity=like control plants. […] Tables 41a and 41b below show the effects of the inventive compound (I-01) with structurally similar compounds (WO2020/245044) on various harmful plants at an application rate corresponding to 320 g/ha or less, which have been obtained by the trial procedure specified hereinafter. The inventive compound (I-01) differs here by variance of a significant structural feature from the structurally similar compound with regard to the R^2 radical. Seeds of monocotyledonous and dicotyledonous weeds and crop plants are placed in sandy loam in plastic or organic planting pots, covered with soil and cultivated in a greenhouse under controlled growth conditions. 2 to 3 weeks after sowing, the trial plants are treated at the one-leaf stage. The compounds of the invention, formulated in the form of wettable powders (WP) or as emulsion concentrates (EC), are then sprayed onto the green parts of the plants as aqueous suspension or emulsion with addition of 0.5% additive at a water application rate of 600 l/ha (converted). After the test plants have been kept in the greenhouse under optimum growth conditions for about 3 weeks, the activity of the preparations is rated visually in comparison to untreated controls. For example, 100% activity=the plants have died, 0% activity=like control plants. Effects/crop compatibilities of selected compounds (see Table 39) on various harmful plants at an application rate corresponding to 80 to 320 g/ha that have been obtained by the trial procedure specified hereinafter are shown in Tables 41a and 41b below."}, "[2]": {"test_system": "ABUTH", "experiment": "Pre-emergence herbicidal effect, greenhouse pot test", "assay_type": "in vivo, Abutilon theophrasti", "conditions": "320 g/ha, scored visually after about 3 weeks vs untreated controls", "source_text": "Seeds of monocotyledonous and dicotyledonous weed plants and crop plants are placed in plastic or organic planting pots and covered with soil. The compounds of the invention, formulated in the form of wettable powders (WP) or as emulsion concentrates (EC), are then applied to the surface of the covering soil as aqueous suspension or emulsion with addition of 0.5% additive at a water application rate equivalent to 600 l/ha. After the treatment, the pots are placed in a greenhouse and kept under good growth conditions for the trial plants. After about 3 weeks, the effect of the preparations is scored visually in comparison with untreated controls as percentages. For example, 100% activity=the plants have died, 0% activity=like control plants.\nTables 1a to 19c below show the effects/crop compatibilities of selected compounds of the general formula (I) on various harmful plants at an application rate corresponding to 20 to 320 g/ha, which were obtained by the trial procedure specified above.\n• ALOMY: Alopecurus myosuroides SETVI: Setaria viridis • AVEFA: Avena fatua POLCO: Fallopia convolvulus • AMARE: Amaranthus retroflexus ECHCG: Echinochloa crus-galli • LOLRJ: Lolium rigidum STEME: Stellaria media • VERPE: Veronica persica MATIN: Tripleurospermum inodorum • DIGSA: Digitaria sanguinalis ABUTH: Abutylon threophrasti • TRZAS: Triticum aestivum VIOTR: Viola tricolor • BRSNW: Brassica napus ZEAMX: Zea mays • PHBPU: Ipomoea purpurea GLXMA: Glycine max • ORYSA: Oryza sativa HORMU: Hordeum murinum"}, "[3]": {"test_system": "DIGSA", "experiment": "Pre-emergence herbicidal effect, greenhouse pot test", "assay_type": "in vivo, Digitaria sanguinalis", "conditions": "320 g/ha, scored visually after about 3 weeks vs untreated controls", "procedure,_shortened": "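Seeds sown in pots and covered with soil; WP- or EC-formulated compounds applied to the soil surface as aqueous suspension/emulsion with 0.5% additive at 600 l/ha water, 20 to 320 g/ha. Greenhouse growth; visual % effect vs untreated controls after about 3 weeks (100% = plants died, 0% = like control).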"}, "[4]": {"test_system": "ZEAMX", "experiment": "Post-emergence herbicidal effect and crop plant compatibility, greenhouse pot test", "assay_type": "in vivo, Zea mays", "conditions": "Zea mays, 504 h, 80 g/ha, one-leaf stage, rated visually after about 3 weeks vs untreated controls, read-out: Post-emergence effect at 80 g/ha against ZEAMX in %", "procedure,_shortened": "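Sandy loam pots, greenhouse. One-leaf stage (2–3 wk after sowing) foliar spray; WP/EC in water + 0.5% additive, 600 l/ha; 20–320 g/ha. Visual score ~3 wk, 0–100% vs untreated.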"}, "[5]": {"test_system": "DIGSA", "experiment": "Post-emergence herbicidal effect, greenhouse pot test", "assay_type": "in vivo, Digitaria sanguinalis", "conditions": "Digitaria sanguinalis, 504 h, visual rating about 3 weeks after treatment, read-out: Post-emergence effect against DIGSA", "procedure,_shortened": "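Weeds sown in sandy loam, greenhouse-grown 2–3 weeks, then sprayed at one-leaf stage with WP or EC formulations in water plus 0.5% additive at 600 l/ha. Rates 20 to 320 g/ha. Visual rating after about 3 weeks versus untreated controls (100% = plants dead, 0% = like control).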"}}}
{"smiles": "CCOC(=O)C(OCC)Oc1nn(-c2ccccc2F)c(-c2ccc(F)nc2)c1Br", "note": "(racemic) [Example I-01, Ethyl (2RS)-{[4-bromo-1-(2-fluorophenyl)-5-(6-fluoropyridin-3-yl)-1H-pyrazol-3-yl]oxy}(ethoxy)acetate]", "values": [{"measurement": "Post-emergence effect, Effect %, ALOMY", "setting": "[1]; 80 g/ha", "result": 90, "unit": "%"}, {"measurement": "Post-emergence effect, Effect %, ALOMY", "setting": "[1]; 320 g/ha", "result": 100, "unit": "%"}, {"measurement": "Post-emergence effect, Effect %, AVEFA", "setting": "[1]; 80 g/ha", "result": 90, "unit": "%"}, {"measurement": "Post-emergence effect, Effect %, AVEFA", "setting": "[1]; 320 g/ha", "result": 90, "unit": "%"}, {"measurement": "Post-emergence effect, Effect %, ECHCG", "setting": "[1]; 80 g/ha", "result": 90, "unit": "%"}, {"measurement": "Post-emergence effect, Effect %, ECHCG", "setting": "[1]; 320 g/ha", "result": 90, "unit": "%"}, {"measurement": "Post-emergence effect, Effect %, LOLRI", "setting": "[1]; 80 g/ha", "result": 70, "unit": "%"}, {"measurement": "Post-emergence effect, Effect %, LOLRI", "setting": "[1]; 320 g/ha", "result": 90, "unit": "%"}, {"measurement": "Post-emergence effect, Effect %, SETVI", "setting": "[1]; 80 g/ha", "result": 90, "unit": "%"}, {"measurement": "Post-emergence effect, Effect %, SETVI", "setting": "[1]; 320 g/ha", "result": 90, "unit": "%"}, {"measurement": "herbicidal efficacy by comparison to the structurally similar compounds (Tables 41a and 41b)", "setting": "[1]; different harmful plants, 320 g or less per hectare, vs compounds from WO2020/245044", "result": "distinctly improved herbicidal efficacy"}]}
{"smiles": "COC(=O)C(OC)Oc1nn(-c2ccccc2F)c(-c2ccc(F)nc2)c1Br", "note": "(racemic) [Example I-04, Methyl (2RS)-{[4-bromo-1-(2-fluorophenyl)-5-(6-fluoropyridin-3-yl)-1H-pyrazol-3-yl]oxy}(methoxy)acetate]", "values": [{"measurement": "Pre-emergence effect at 320 g/ha against ABUTH in %", "setting": "[2]", "result": 80, "unit": "%"}]}
{"smiles": "COC(=O)C(OC)Oc1nn(-c2ncccc2F)c(-c2ccc(F)nc2)c1Br", "note": "(stereo not shown) [Example I-05]", "values": [{"measurement": "Pre-emergence effect at 320 g/ha against DIGSA in %", "setting": "[3]", "result": 90, "unit": "%"}, {"measurement": "plant injury at 80 g/ha", "setting": "[4]", "result": 20, "unit": "%"}, {"measurement": "pest or weed control at 80 g/ha", "setting": "[5]; 80 g/ha", "result": 90, "unit": "%"}, {"measurement": "pest or weed control at 320 g/ha", "setting": "[5]; 320 g/ha", "result": 90, "unit": "%"}]}
